# Test results reported in paper PMC12903969, “Discovery of a Novel and Potent Kir4.1 Inhibitor as a Safe and Rapid‐Onset Antidepressant Agent in Mice” (Advanced Science, 2025).
# Residue numbers refer to the chain shown, from its start. Values joined by “and” are separate entries in the source; they are usually repeats but may differ in a detail not shown here. Equal values may be shown once. Read-outs that look alike come from different tables or passages of the source.
# Tests used:
# Kir4.1 = target: T1, Kir4.1 (Homo sapiens, UniProt P78508); test: Whole-cell patch clamp, Kir4.1 currents in transfected CHO-K1 cells; format: cell-based; settings: for inhibition at 1 µM: CHO-K1, 1 μM; for inhibition at 10 µM: CHO-K1, 10 μM; for IC50: whole-cell patch clamp
# T1 construct: host or cells: CHO-K1
# T1 sequence (P78508 1-379): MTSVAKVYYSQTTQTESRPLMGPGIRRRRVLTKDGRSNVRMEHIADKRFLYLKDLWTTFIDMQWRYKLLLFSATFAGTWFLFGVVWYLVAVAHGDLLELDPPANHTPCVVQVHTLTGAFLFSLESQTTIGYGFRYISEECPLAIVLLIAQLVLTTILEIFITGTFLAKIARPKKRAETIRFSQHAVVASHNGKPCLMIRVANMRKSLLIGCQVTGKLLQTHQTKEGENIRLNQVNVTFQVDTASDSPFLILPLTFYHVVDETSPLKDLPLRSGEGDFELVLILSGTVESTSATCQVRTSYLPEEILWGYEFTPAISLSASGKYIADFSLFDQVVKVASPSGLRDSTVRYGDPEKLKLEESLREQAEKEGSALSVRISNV
# Method in brief: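 Transiently transfected CHO-K1 cells (with EGFP), whole-cell voltage clamp at room temperature; pipette 140 mM KCl pH 7.2, bath 140 mM NaCl/5 mM KCl pH 7.4. Currents evoked from −80 mV holding by a step to −120 mV then ramp to +50 mV; compounds applied by perfusion.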
# Kir4.1 E158N = target: T2, Kir4.1 E158N (Homo sapiens, UniProt P78508, E158N); test: Whole-cell patch clamp, Kir4.1 point mutant E158N; format: cell-based
# T2 construct: expressed in transfected cells; host or cells: CHO-K1
# T2 sequence (P78508 1-379 E158N): T1 sequence (P78508 1-379) with E158N
# Protocol: Plasmids encoding WT human potassium channels Kir1.1, Kir2.1, Kir2.2, Kir4.1, and Kir4.2 were obtained from the Beijing Genomics Institute. All point mutations were constructed using the QuickChange II Site‐Directed Mutagenesis Kit (Stratagene) and subsequently verified by sequencing.
# CHO‐K1 cells were maintained in DMEM/F12 growth medium containing 10% fetal bovine serum. Plasmids encoding the target genes (3600 ng) and enhanced green fluorescent protein (400 ng) were cotransfected into cells using Lipofectamine 2000 (Invitrogen) in accordance with the manufacturer's instructions. Cells were seeded onto poly‐d‐lysine (PDL)‐coated glass coverslips 1 h prior to electrophysiological recordings. All cells were cultured under standard conditions of 5% CO2 at 37 °C.
# Whole‐cell patch‐clamp recordings were obtained either in transiently transfected CHO‐K1 cells or in primary cultured astrocytes at room temperature using standard patch‐clamp techniques with an Axopatch‐700B amplifier (Axon Instruments). The signals were filtered at 2 kHz and sampled at 20 kHz using the Digidata 1440A interface (Axon Instruments). The resistance of borosilicate glass pipettes was typically 2–4 MΩ when filled with the internal solution. Drug application was facilitated using a BPS perfusion system (ALA Scientific Instruments). Macroscopic currents generated by expressed potassium channels were recorded under the voltage‐clamp conditions with an internal pipette solution composed of (in mM): 140 KCl, 5 NaCl, 1 CaCl2, 1 MgCl2, 10 HEPES, and 10 EGTA, pH 7.2 adjusted with KOH. The external solution contained (in mM): 140 NaCl, 5 KCl, 2 CaCl2, 1 MgCl2, 10 glucose, and 10 HEPES, pH 7.4 adjusted with NaOH. Currents were elicited with a hyperpolarized voltage at −120 mV from the holding potential of −80 mV, followed by a ramp voltage depolarizing to +50 mV. Astrocytic resting membrane potentials were recorded under current‐clamp conditions (I = 0 pA) using standard internal and external solutions, determined immediately after achieving whole‐cell mode.
# C57BL/6J mice after CSDS [1] = test: Chronic social defeat stress (CSDS) model, sucrose preference test; format: in vivo; settings: single i.p. injection 10 mg kg−1
# Protocol: (§1) The 10‐day CSDS paradigm was conducted as previously described.^[ [24] ^] CD‐1 aggressive mice were singly housed in defeat cages on one side of a perforated plexiglass partition 24 h before the defeat session. Experimental C57BL/6J mice were placed daily on the resident cage side of a novel CD‐1 aggressor that rapidly initiated a physical attack on the intruder. After 10‐min of social defeat, the intruder mice were housed on the opposite side of the partition within a shared home cage, experiencing further sensory contact for the subsequent 24 h. In contrast, control mice were maintained in their home cages and allowed to explore the empty defeat cages for 10 min each day.
# Mice were individually housed with two identical bottles containing either 1% sucrose solution or tap water for 24 h. The bottles were then replaced to eliminate potential positional bias, followed by an additional 24‐h period with the same solutions. Subsequently, the mice were provided with tap water for 24 h. During the experimental phase, new bottles filled with either 1% sucrose solution or tap water were presented for 24 h, and the bottles were changed every 12 h. The bottles were weighed both before and after the 24‐h test to assess consumption of each solution.
# C57BL/6J mice after CSDS [2] = test: CSDS model, forced swim test; format: in vivo; settings: single i.p. injection 10 mg kg−1
# Protocol: as §1
# Mice were placed individually in a transparent glass cylinder (25 cm high, 10 cm wide) filled with water (temperature 23–25 °C) to a depth of 10 cm, and prevented from making contact with the bottom. Mice behaviors were videotaped from each side. The observation period lasted for 6 min, with the final 4 min used to measure immobile behavior, which was processed using the AnyMaze Tracking System (Stoelting).
compound,measurement,setting,value
"c1ccc2c(c1)oc1ccc(Nc3ccnc(NCCCN4CCOCC4)n3)cc12 [JX3212, N^4-(dibenzo[b,d]furan-2-yl)-N^2-(3-morpholinopropyl)pyrimidine-2,4-diamine]",inhibition at 0.5 µM,"Kir4.1; CHO-K1, 0.5 μM, +50 mV, read-out: Kir4.1 Inhibition ± SD (%) at 0.5 μM, +50 mV",82.8 ± 1.51%
same,inhibition at 0.5 µM,"Kir4.1; CHO-K1, 0.5 μM, -120 mV, read-out: Kir4.1 Inhibition ± SD (%) at 0.5 μM, -120 mV",73.2 ± 3.59%
same,inhibition at 0.5 µM,"Kir4.1; CHO-K1, 0.5 µM, read-out: Kir4.1 inhibition at 0.5 µM",> 60%
same,inhibition at 1 µM,"Kir4.1; +50 mV, read-out: Kir4.1 Inhibition ± SD (%) at 1 μM, +50 mV",82.5 ± 5.51%
same,inhibition at 1 µM,"Kir4.1; -120 mV, read-out: Kir4.1 Inhibition ± SD (%) at 1 μM, -120 mV",84.5 ± 3.09%
same,inhibition at 3 µM,"Kir4.1; CHO-K1, 3 µM, mean ± SEM, read-out: current inhibition, Kir4.1 WT",92.4 ± 2.25%
same,inhibition at 10 µM,"Kir4.1; +50 mV, read-out: Kir4.1 Inhibition ± SD (%) at 10 μM, +50 mV",96 ± 1.52%
same,inhibition at 10 µM,"Kir4.1; -120 mV, read-out: Kir4.1 Inhibition ± SD (%) at 10 μM, -120 mV",97.3 ± 1.01%
same,inhibition at 3 µM,"Kir4.1; CHO-K1, JX3212 3 µM (Fig 2A), read-out: Kir isoforms: Kir4.1 inhibition, single recordings",94.9%
same,inhibition at 3 µM,"Kir4.1; CHO-K1, JX3212 3 µM (Fig 2D), read-out: Mutation: Kir4.1 WT inhibition, single recordings",92.1%
same,"Kir isoforms: Kir4.1 inhibition, single recordings",Kir4.1; JX3212 3 µM (Fig 2A),94.131 and 95.7029
same,"Mutation: Kir4.1 WT inhibition, single recordings",Kir4.1; JX3212 3 µM (Fig 2D),94.7739 and 90.2954
same,improvement in target activity over lead EHop-016,Kir4.1; Kir4.1 IC50 ratio,2.6 fold
same,IC50,"Kir4.1; CHO cells transiently expressing Kir4.1, +50 mV, read-out: IC50 for Kir4.1 inhibition (+50 mV, outward currents)",190 nM
same,IC50,"Kir4.1; CHO cells transiently expressing Kir4.1, −120 mV, read-out: IC50 for Kir4.1 inhibition (−120 mV, inward currents)",280 nM
same,inhibition at 3 µM,"Kir4.1 E158N; 3 µM, mean ± SEM, read-out: current inhibition, Kir4.1 E158N",29.4 ± 2.66%
same,"Mutation: E158N inhibition, single recordings",Kir4.1 E158N; JX3212 3 µM (Fig 2D),26.6694 and 31.4659 and 31.9554
same,inhibition at 3 µM,"Kir4.1 E158N; JX3212 3 µM (Fig 2D), read-out: Mutation: E158N inhibition, single recordings",27.7%
same,CSDS: sucrose preference in SPT (in words),C57BL/6J mice after CSDS [1],nonsignificant increase in the sucrose preference ratio
same,CSDS: immobility in FST (in words),C57BL/6J mice after CSDS [2],reduced immobility duration
